The record followed here is PubChem BioAssay (NCI).

The structures appear in SMILES notation. “And” between values parts separate entries of the source, which are not always exact repeats. Identical values can stand only once.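 96-well plates; 48 h exposure; 5 concentrations. Endpoints by linear interpolation between flanking doses. Not reached: highest tested concentration assigned. At the GI50, growth is halved. TGI: concentration producing complete growth inhibition.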

Test systems include UACC-257 melanoma; 786-0 renal; RXF 393 renal; M14 melanoma; OVCAR-8 ovarian; COLO 205 colon; SK-MEL-2 melanoma; SN12C renal; HS 578T breast; DU-145 prostate.
Holding throughout (assay): DTP human tumour cell line panel, 48 h

What is called GI50 is the concentration at which growth is held to half of that of the control. A word on the TGI: it is the concentration giving total growth inhibition. On to `Cc1c(Cl)cccc1NC(=O)CC1Sc2ccccc2NC1=O` (stereo unspecified), for which the GI50 in the assay on UACC-257 melanoma is 38.7 µM and 5.35 µM. Moreover, the TGI in the assay on UACC-257 melanoma is > 94.7 µM and 37.8 µM; with 786-0 renal, 50.9 µM and 31.7 µM; in the assay on RXF 393 renal it was 28 µM and 41.6 µM; with M14 melanoma, 81.7 µM and 93 µM; with OVCAR-8 ovarian, 33.3 µM and 43.3 µM; in the assay with COLO 205 colon, greater than 100 µM. Further, the TGI was 59.6 µM and 41.9 µM in the assay with SK-MEL-2 melanoma; 65.6 µM and > 100 µM in the assay with SN12C renal; 25.3 µM with HS 578T breast; greater than 100 µM in the assay on DU-145 prostate.

With `COc1ccc2c(c1)O/C(=C\c1cccc(OCC(=O)Nc3nc4ccccc4s3)c1)C2=O`, the GI50 with UACC-257 melanoma is greater than 100 µM; in the assay with 786-0 renal, greater than 66.4 µM; with RXF 393 renal, 1.96 µM; with M14 melanoma it was 36.3 µM; in the assay with OVCAR-8 ovarian it was 12.6 µM; with COLO 205 colon, greater than 100 µM. Besides, the GI50 was 11.5 µM in the assay on SK-MEL-2 melanoma, 2.82 µM with SN12C renal, 13.8 µM in the assay on HS 578T breast and 3.57 µM in the assay with DU-145 prostate. Moreover, the TGI in the assay on UACC-257 melanoma was greater than 100 µM; in the assay on 786-0 renal, greater than 100 µM; in the assay on RXF 393 renal, 3.99 µM; with M14 melanoma, greater than 100 µM; in the assay with OVCAR-8 ovarian, greater than 100 µM; with COLO 205 colon it was greater than 100 µM. Further, the TGI is 33.3 µM in the assay with SK-MEL-2 melanoma, greater than 100 µM in the assay on SN12C renal, 70.1 µM in the assay with HS 578T breast and 21.9 µM with DU-145 prostate.

On to `COC1=CC(c2ccc[nH]2)=N/C1=C\c1[nH]c(C)c(C(=O)CCC(=O)Oc2ccc3c(c2)CCC2C3CC[C@]3(C)C(=O)CC[C@@H]23)c1C` (stereo partly specified), for which the GI50 was 97.6 µM with UACC-257 melanoma; 6 µM with 786-0 renal; 11.7 µM in the assay on RXF 393 renal; 12.3 µM in the assay with M14 melanoma; 8.37 µM in the assay on OVCAR-8 ovarian; 21.5 µM with COLO 205 colon. Besides, the GI50 in the assay on SK-MEL-2 melanoma is 15.6 µM; in the assay with SN12C renal, 5.23 µM; in the assay on HS 578T breast, 14.2 µM; in the assay on DU-145 prostate, 1.58 µM. For the same molecule, the TGI was greater than 100 µM in the assay on UACC-257 melanoma; 39.1 µM in the assay with 786-0 renal; greater than 87.4 µM in the assay with RXF 393 renal; 33.4 µM in the assay with M14 melanoma; greater than 100 µM in the assay with OVCAR-8 ovarian; greater than 100 µM in the assay on COLO 205 colon. Besides, the concentration for total growth inhibition (TGI) with SK-MEL-2 melanoma is 58.7 µM; with SN12C renal it was greater than 100 µM; in the assay with HS 578T breast, greater than 100 µM; with DU-145 prostate it was greater than 100 µM.

As to `O=C1C(=O)c2ccc(Br)cc2-c2cc(Br)ccc21`, the GI50 in the assay on UACC-257 melanoma was 1.62 µM; in the assay on 786-0 renal, 10.4 µM; in the assay on RXF 393 renal, 1.85 µM; with M14 melanoma it was 6.34 µM; in the assay with OVCAR-8 ovarian it was 0.852 µM; in the assay with COLO 205 colon it was greater than 100 µM. In addition, the GI50 in the assay on SK-MEL-2 melanoma is 10.4 µM; with SN12C renal, 2.14 µM; in the assay with HS 578T breast, 8.27 µM; in the assay with DU-145 prostate, 7.29 µM. The TGI in the assay with UACC-257 melanoma was 4.19 µM; in the assay on 786-0 renal it was greater than 56.3 µM; in the assay on RXF 393 renal, 7.36 µM; in the assay with M14 melanoma, greater than 66.6 µM; with OVCAR-8 ovarian it was 2.57 µM; with COLO 205 colon, greater than 100 µM. For the same molecule, the TGI in the assay on SK-MEL-2 melanoma is greater than 100 µM; in the assay on SN12C renal, 11.2 µM; in the assay on HS 578T breast, greater than 78.9 µM; in the assay with DU-145 prostate, greater than 100 µM.

As to `Cc1cc(N(CCCl)CCCl)ccc1C=Nc1cccnc1`, the GI50 with UACC-257 melanoma is 3.7 µM; with 786-0 renal, 6.6 µM; in the assay with RXF 393 renal, 11.6 µM; in the assay with M14 melanoma it was 22.5 µM; in the assay with OVCAR-8 ovarian, 28.3 µM; in the assay with COLO 205 colon, 15.1 µM. The GI50 was 7.57 µM in the assay with SK-MEL-2 melanoma, 10.6 µM with SN12C renal, 37.7 µM in the assay on HS 578T breast and 4.62 µM in the assay on DU-145 prostate. Besides, the concentration for total growth inhibition (TGI) in the assay on UACC-257 melanoma was 23.2 µM; with 786-0 renal it was greater than 69.1 µM; in the assay on RXF 393 renal, 42.5 µM; in the assay with M14 melanoma it was greater than 100 µM; with OVCAR-8 ovarian, greater than 100 µM; with COLO 205 colon, greater than 70.8 µM. For the same molecule, the total growth inhibition concentration (TGI) in the assay with SK-MEL-2 melanoma was greater than 50.1 µM; in the assay on SN12C renal, greater than 100 µM; with HS 578T breast it was greater than 100 µM; in the assay with DU-145 prostate, 42.9 µM.

On to `CC1(C)CCC(S(=O)(=O)c2ccc3c(c2)/C(=N\O)c2cc(S(=O)(=O)N4CCC(O)(c5cccc(C(F)(F)F)c5)CC4)ccc2-3)CC1`, for which the GI50 is 0.0665 µM in the assay with UACC-257 melanoma; 0.145 µM in the assay on 786-0 renal; 0.053 µM with RXF 393 renal; 0.019 µM in the assay on M14 melanoma; 0.034 µM in the assay with OVCAR-8 ovarian; 0.0208 µM in the assay on COLO 205 colon. In addition, the GI50 is 0.0179 µM in the assay on SK-MEL-2 melanoma, 0.0612 µM with SN12C renal, 0.0287 µM with HS 578T breast and 0.0319 µM with DU-145 prostate. Moreover, the TGI is 1.11 µM with UACC-257 melanoma; 0.36 µM in the assay on 786-0 renal; 0.185 µM in the assay on RXF 393 renal; 0.0375 µM with M14 melanoma; 0.112 µM with OVCAR-8 ovarian; 0.0455 µM in the assay with COLO 205 colon. Also, the TGI is 0.0364 µM with SK-MEL-2 melanoma, 2.2 µM in the assay with SN12C renal, 0.0749 µM in the assay with HS 578T breast and 0.115 µM in the assay with DU-145 prostate.

On to `CC1OCC2OC(C)OC(C3C4=C(CC(C)(C)CC4=O)OC4=C3C(=O)CC(C)(C)C4)C2O1` (stereo unspecified), for which the concentration for total growth inhibition (TGI) in the assay with UACC-257 melanoma, in the assay on 786-0 renal, in the assay on RXF 393 renal, in the assay on M14 melanoma, in the assay with OVCAR-8 ovarian and in the assay with COLO 205 colon was greater than 100 µM throughout. The TGI with SK-MEL-2 melanoma, with SN12C renal, with HS 578T breast and in the assay with DU-145 prostate was greater than 100 µM each time.

Take `O=C(NNc1nc2cc(F)ccc2n2c(CN3CCOCC3)ccc12)c1ccccc1`: the GI50 was 0.456 µM with UACC-257 melanoma; 0.305 µM in the assay on 786-0 renal; 0.363 µM in the assay on RXF 393 renal; 0.173 µM in the assay on M14 melanoma; 0.321 µM in the assay on OVCAR-8 ovarian; 0.261 µM with COLO 205 colon. The GI50 with SK-MEL-2 melanoma was 1.04 µM; in the assay on SN12C renal it was 0.399 µM; in the assay on HS 578T breast, 1.51 µM; in the assay with DU-145 prostate, 0.358 µM. For the same molecule, the TGI was 3.85 µM in the assay with UACC-257 melanoma; 1.98 µM in the assay on 786-0 renal; 2.06 µM with RXF 393 renal; 1.26 µM in the assay on M14 melanoma; 7.66 µM in the assay on OVCAR-8 ovarian; 1.56 µM in the assay with COLO 205 colon. The TGI in the assay with SK-MEL-2 melanoma stood at 8.06 µM; in the assay on SN12C renal, 2.18 µM; in the assay on HS 578T breast, 8.05 µM; in the assay on DU-145 prostate, 4.78 µM.
